We go through one compound from patent US9146237B2, “In vitro assay method using immunological technique” (BASF Beauty Care Solutions France S.A.S., priority 2011, dated 2015).

The test system of experiment [1] is intracellular procollagen. As to the kind of experiment: Procollagen assay by ELISA (PIPc kit) on collected lysis medium. The format is cell-based, human. To be noted: Example 4. How it is done: A lysis step was carried out: 110 μl of an ammonium hydroxide solution at 20 mM for 10 minutes at room temperature and with stirring. The experiment was carried out without active ingredient on the one hand and with ascorbic acid solubilized in PBS at different concentrations from 0.1 to 100 μM. On the collected lysis medium, a procollagen assay (PIPc kit, TAKARA) by ELISA was carried out for determining the amount of intracellular procollagen (Table 4.2). A DNA assay (Picogreen kit, Invitrogen) was also carried out for rationalizing all of the measurements in each well to the quantity of viable cells. The amounts of collagen and procollagen measured were rationalized to the amount of DNA present in each well.

Experiment [2] concerns type I collagen in the ECM. Description: Assay of type I collagen directly on the ECM of fibroblast cultures (anticollagen I antibody, europium TRF). The format is cell-based, human. The method, then: After 48 hours of culture post-confluency, the culture medium was removed and discarded. A lysis step was carried out: 110 μl of an ammonium hydroxide solution at 20 mM for 10 minutes at room temperature and with stirring. The lysate was collected and analysed. The double-stranded DNA contained in the lysate was assayed by using the bisbenzimide method (Picogreen Kit, Invitrogen). The collagen in the ECM was assayed directly on the ECM by using an anticollagen I antibody. A secondary antibody conjugated to europium was used with a detection solution and the fluorescence was measured. (Delfia® kit—Perkin Elmer). The fluorescence results were rationalized relative to the amount of dsDNA measured. The experiment was carried out without active ingredient on the one hand and with ascorbic acid solubilized in PBS at different concentrations from 0.1 to 100 μM. The experiment was carried out according to the protocol described in example 1 with fibroblasts extracted from a biopsy from a donor. The cells at confluency were incubated in the presence of the active ingredients for 48 hours at 37° C. under 0.5% CO2 or without active ingredient (control) for 48 hours at 37° C. under 0.5% CO2. […]

For `O=C1O[C@H]([C@@H](O)CO)C(O)=C1O` [Ascorbic acid], the “Procollagen concentration in the intracellular compartment versus untreated control” value in experiment [1] is reported as “less than that observed with the untreated control”. In experiment [2] (50 μM, Example 6), the “Effect on amount of collagen I in the ECM” value is “significant increase in the amount of collagen I in the ECM”. Further, in experiment [2] (Example 4, 0.1 to 100 μM), the “Concentration up to which the effect on content of collagen I in the ECM is dose-dependent (threshold effect)” value was “up to 50 μM”.
